What was measured:
[1] = system: Fusarium solani, ATCC 36031; assay: Microbiology challenge test, log drop; format: cell-based; conditions: for Log drop at 6 hour: Table 6: Myristylamine 0.001 % w/w
Procedure: (§1) The following is the procedure by which various antimicrobial agents and solutions are tested for their ability to reduce microbial loads over short periods of time, typically 24 hours and less. The procedure is a basic microbiology challenge test, which involves the inoculation of test product aliquots with a known number of viable cells of several test organisms, and assay for the survivors at various time intervals. The results are used to calculate log drops at soak times and construct kill-curves (graphs of survivors versus time) if desired.
(§2) Candida albicans, ATCC 10231, is one of five organisms specified per FDA and ISO/CLI tests for the testing of contact lens disinfectants (FDA Premarket Notification (510k) Guidance Document for Contact Lens Care Products, Appendix B, Apr. 1, 1997 and ISO/FDIS 14729: Ophthalmic optics-Contact lens care products-Microbiological requirements and test methods for products and regimens for hygienic management of contact lenses, January 2001). Contact lens disinfectants are also known as contact lens multi-purpose solutions when they are used for rinsing, cleaning, disinfection, storage and rewetting contact lenses. The five FDA/ISO specified test organisms are listed below: • Serratia marcescens, ATCC 13880 • Staphylococcus aureus, ATCC 6538 • Pseudomonas aeruginosa, ATCC 9027 • Candida albicans, ATCC 10231 • Fusarium solani, ATCC 36031
(§3) The specific test procedure for testing antimicrobial activity against the five FDA/ISO specified test organisms is as follows (C. albicans is provided as a specific example): Test samples are sterile-filtered through a 0.22 micron sterile filter into sterile plastic high density polyethylene bottles or plastic flasks. A 10-mL aliquot of test sample is aseptically transferred into a sterile polystyrene plastic test tube. Sterile saline (0.90 w/v % NaCl) with 0.05 w/v % Polysorbate 80 (SS+TWEEN) is transferred into a separate control tube. All samples and control are stored at 20-25° C. throughout the duration of the test.
(§4) Test cultures of Candida albicans, ATCC 10231 are prepared in the conventional manner. Candida albicans cultures are grown on agar slants from primary frozen, lyophilized or “Culti-loop®” cultures. Three mL of sterile 0.9% saline is used to gently dislodge culture growth from the agar surface. The resulting harvest is transferred to an appropriate screw cap test tube containing glass beads and vortexed for approximately one minute. The vortexed harvest is diluted as needed with sterile 0.9% saline to prepare the culture inoculum with a concentration of 1×10e8 CFU/mL. Fifty microliters of culture inoculum is added to 10.0 mL of each test sample and control, so that the final inoculum level is in the range of 1×10e5 to 1×10e6 CFU(colony forming units) per mL of Candida albicans, ATCC 10231. Each sample and control tube is vortexed briefly to disperse the inoculum. Contact time intervals for testing activity against Candida are typically 4 or 6 hours, to conform to the intended product label instructions for contact lens soak time.
(§5) Aerobic Plate Count Methods are performed in order to quantitate test samples for their levels of survivors. At appropriate assay times, 0.5 mL well-vortexed aliquots are removed from sample tubes and added to glass test tubes containing 4.5 mL Letheen Neutralizing Broth media (Berton, Dickinson and Company, Sparks, Md.). After a previously determined, validated neutralizing time period, these samples are diluted 10-fold through serial dilutions using glass test tubes containing 4.5 mL Letheen Neutralizing Broth media. Aliquots of 0.1 mL are removed from each dilution tube and spread-plate applied to agar plates containing Sabouraud Dextrose Agar (SAB)(Berton, Dickinson and Company, Sparks, Md.). 10^1 to 10^4 CFU/mL survivor levels are quantitated. […]

[2] = system: Serratia marcescens, ATCC 13880; assay: Microbiology challenge test, log drop; format: cell-based; conditions: for Log drop at 6 hour: Table 6: Myristylamine 0.001 % w/w
Procedure: as §1, §2, §3, §4, §5

[3] = system: Pseudomonas aeruginosa, ATCC 9027; assay: Microbiology challenge test, log drop; format: cell-based; conditions: for Log drop at 6 hour: Table 6: Myristylamine 0.001 % w/w
Procedure: as §1, §2, §3, §4, §5

[4] = system: Candida albicans, ATCC 10231; assay: Microbiology challenge test, log drop; format: cell-based; conditions: for Log drop at 6 hour: Table 6: Myristylamine 0.001 % w/w
Procedure: as §1, §2, §3, §4, §5

[5] = system: Staphylococcus aureus, ATCC 6538; assay: Microbiology challenge test, log drop; format: cell-based; conditions: for Log drop at 6 hour: Table 6: Myristylamine 0.001 % w/w
Procedure: as §1, §2, §3, §4, §5

[6] = Contact lens uptake: content left in solution after shaking with lenses; format: physicochemical; conditions: Myristylamine with TPGS 20 fold
Procedure: The results in Table 9A show the remaining quaternary ammonium and tertiary amine content left in solution after a 15 ml-solution-2 lenses closed system has been shaken for 6 days at room temperature. […] The control which was run for this experiment, which includes the remaining ingredients in the solutions referenced in Table 9A are listed in Table 9B. As one of ordinary skill in the art would realize, the less quaternary ammonium or tertiary amine content remaining in solution after the shaking period, the higher the absorption by the lenses.

[7] = Table 2A: Myristylamine 0.0003 % w/w, Tetronic 1307 0.05, pH 7.8
[8] = Table 2A: Myristylamine 0.0005 % w/w, Tetronic 1307 0.05, pH 7.8
[9] = Table 3: Myristylamine 0.0005 w/v % with WSCP 0.001, NaClO2 0.01, NaCitrate 0.4, T1307 0.05
[10] = Table 3: Myristylamine 0.0005 w/v %, WSCP 0.0, NaClO2 0.0, NaCitrate 0.0, T1307 0.05
[11] = Table 4: Myristylamine 0.0003 w/v % with PHMB 0.00003, Tetronic 1107 0.05, pH 7.8
[12] = Table 4: Myristylamine 0.0003 w/v %, PHMB 0, Tetronic 1107 0.05, pH 7.8
[13] = Table 5: Myristylamine 0.0005 w/v % with Polyquaternium-1 0.001, NaCitrate 0.6, Tetronic 1304 0.05, pH 7.8
[14] = Tween 80 0.0074, Polyquaternium-1 0, pH 7.3, 6 hour
[15] = Tween 80 0.0074, with Polyquaternium-1 0.000075, pH 7.3, 6 hour

In the case of `CCCCCCCCCCCCCCN` [Myristylamine], the “Log Drop” value [1, 7] is reported as greater than 4.34, the “Log Drop” value [1, 8] is reported as greater than 4.34 and the “Log Drop” value [1, 9] is reported as greater than 4.34. For the same compound, the “Log Drop” value [1, 10] was greater than 4.34, the “Log Drop” value [1, 11] was greater than 4.34 and the “Log Drop” value [1, 12] was greater than 4.34. For the same compound, the “Log Drop” value [1, 13] was greater than 4.34, the “Log drop at 6 hour” value [1, 14] was 3.73 and the “Log drop at 6 hour” value [1, 15] was 3.12. The “Log Drop” value [2, 7] was 1.18, the “Log Drop” value [2, 8] was 2.6 and the “Log Drop” value [2, 9] was 3.1. For the same compound, the “Log Drop” value [2, 10] was 1.68, the “Log Drop” value [2, 11] was 3.46 and the “Log Drop” value [2, 12] was 1.18. For the same compound, the “Log Drop” value [2, 13] was 3.64, the “Log drop at 6 hour” value [2, 14] was 1.19 and the “Log drop at 6 hour” value [2, 15] was 3.12. The “Log Drop” value [3, 7] was greater than 4.63, the “Log Drop” value [3, 8] was greater than 4.63 and the “Log Drop” value [3, 9] was greater than 4.63. For the same compound, the “Log Drop” value [3, 10] was greater than 4.63, the “Log Drop” value [3, 11] was greater than 4.63 and the “Log Drop” value [3, 12] was greater than 4.63. The “Log Drop” value [3, 13] was greater than 4.63, the “Log drop at 6 hour” value [3, 14] was greater than 4.58 and the “Log drop at 6 hour” value [3, 15] was greater than 4.58. For the same compound, the “Log Drop” value [4, 7] was 3.67, the “Log Drop” value [4, 8] was 4.41 and the “Log Drop” value [4, 9] was 2.95. For the same compound, the “Log Drop” value [4, 10] was 3.29, the “Log Drop” value [4, 11] was 3.31 and the “Log Drop” value [4, 12] was 3.67. The “Log Drop” value [4, 13] was 4.52, the “Log drop at 6 hour” value [4, 14] was greater than 4.67 and the “Log drop at 6 hour” value [4, 15] was greater than 4.67. For the same compound, the “antimicrobial activity against C. albicans” value ([4]; result in words, Table 2A data) was “strong antimicrobial activity against C. albicans”, the “Log Drop” value [5, 7] was 2.87 and the “Log Drop” value [5, 8] was 4.8. The “Log Drop” value [5, 9] was 3.74, the “Log Drop” value [5, 10] was 2.93 and the “Log Drop” value [5, 11] was 4.21. The “Log Drop” value [5, 12] was 2.87, the “Log Drop” value [5, 13] was 4.69 and the “Log drop at 6 hour” value [5, 14] was 1.04. The “Log drop at 6 hour” value [5, 15] was 3.21, the “remaining content left in solution, Acuvue” value ([6]; 15 ml solution, 2 Acuvue lenses, closed system shaken 6 days at room temperature) was 34.1 ppm and the “remaining content left in solution, Purevision” value ([6]; 15 ml solution, 2 Purevision lenses, closed system shaken 6 days at room temperature) was 13.0 ppm. For the same compound, the “remaining content left in solution, Without Lens” value ([6]; 15 ml system without lenses, shaken 6 days at room temperature) was 37.9 ppm.

Reference: patent publication US20050228046A1, “Alkylamine as an antimicrobial agent in ophthalmic compositions” (ADVANCED MEDICAL OPTICS, INC., priority 2004, published 2005)
